Laboratory results taken from patent publication US6703380B2, “Prevention of cancer” (Colotech A/S, priority 1999, dated 2004).
Values joined by “and” are separate entries in the source; they are usually repeats but may differ in a detail not shown here. Identical values can stand only once.

Legend:
[1] = test system: aberrant crypt foci (ACF) of the colon/rectum in AOM-induced rats; experiment: ACF of the colon/rectum in AOM-induced rats, Example 2; assay type: in vivo, rat
Method: The in vivo study of the effect on prevention of CRC in AOM (Azoxymethane) induced rats The rats are induced s.c 1× week in 2 weeks with an AOM solution. The effect of the specific treatment is evaluated due to the number of aberrant crypt foci (ACF) of the colon/rectum in the AOM-induced rats. The aberrant crypt score is evaluated by stereomicroscopy (40×) upon staining with Giemsa-solution (6 ml conc. Giemsa in 50 ml of PBS, pH 7.1). The crypt size is categorised as small, medium, large and X-large. The number of animals is 80 with 16 in each group. The medicaments are administered with the food. The section is 18 weeks from the first dosage. […] Data for weight, food and water are registered and analysed “Small” in the third column is the sum of small and medium of the first column “Large” in the third column is the sum of large and x-large the of second column

[2] = test system: stroke, acute myocardial infarction and/or cardiovascular death; settings: low-dose; cited from earlier work
[3] = test system: human colon cancer cell lines (LoVo); settings: in vitro, including CEA-producing cell lines; cited from earlier work
solid, human xenografts = settings: in vivo (mice); cited from earlier work
[4] = following 3 months of therapy; cited from earlier work
[5] = count per animal, listed as Asp 200

Question: For `CC(=O)Oc1ccccc1C(=O)O` [ASA, acetylsalicylic acid], which “Effect on (large) ACF, in words” value ([1]; aspirin 200 ppm without or with Ca and 1,25 DHC) is on record?
Answer: The value was “without effect”.

Question: What about the “Small ACF, individual rat” value ([1]; count per animal, section 18 weeks from first dosage, listed as Asp 200) of the same molecule?
Answer: Its value is 92 and 87 and 20 and 51 and 31 and 82 and 73 (2×) and 44 (2×) and 55 and 47 and 40 and 22 and 46 and 63.

Question: And the “Large (sum of large and x-large) ACF, individual rat” value [1, 5]?
Answer: Its value is 15 and 9 and 2 (3×) and 8 and 5 (2×) and 3 (3×) and 6 and 1 (2×) and 7 and 4.

Question: What about the “Large ACF, individual rat” value [1, 5] of the same molecule?
Answer: Its value is 13 and 8 and 2 (3×) and 5 (4×) and 3 (3×) and 1 (2×) and 6 and 4.

Question: And the “Medium ACF, individual rat” value [1, 5]?
Answer: The value was 74 and 45 and 8 and 34 and 10 and 51 and 35 and 31 and 22 and 49 and 21 and 9 and 26 and 47 and 18 and 50.

Question: What about the “Small (sum of small and medium) ACF, individual rat” value [1, 5] of the same molecule?
Answer: The value was 166 and 132 and 28 and 85 and 41 and 133 and 108 and 75 and 77 and 96 and 61 and 31 and 72 and 120 and 62 and 113.

Question: What about the “Total ACF, individual rat” value [1, 5] of the same molecule?
Answer: The value was 181 and 141 and 30 and 93 and 43 and 138 and 111 and 78 and 80 and 102 and 62 and 33 and 79 and 125 and 66 and 114.

Question: And the “X-Large ACF, individual rat” value [1, 5]?
Answer: Its value is 2 and 1 (3×) and 0 (11×) and 3.

Question: And the “Large (sum of large and x-large) ACF, Mean” value ([1]; group mean)?
Answer: The value was 4.75.

Question: What about the “Large ACF, Mean” value ([1]; group mean) of the same molecule?
Answer: Its value is 4.25.

Question: What about the “Medium ACF, Mean” value ([1]; group mean) of the same molecule?
Answer: The value was 33.13.

Question: And the “Small (sum of small and medium) ACF, Mean” value ([1]; group mean)?
Answer: Its value is 87.50.

Question: And the “Small ACF, Mean” value ([1]; group mean)?
Answer: The value was 54.38.

Question: And the “Total ACF, Mean” value ([1]; group mean)?
Answer: Its value is 92.25.

Question: What about the “X-Large ACF, Mean” value ([1]; group mean) of the same molecule?
Answer: The value was 0.50.

Question: What about the “Relative risk-reduction in relation to stroke, acute myocardial infarction and/or cardiovascular death” value [2] of the same molecule?
Answer: The value was “approx. 25%”.

Question: Which “Growth of human colon cancer cell lines” value [3] does the source give for `C=C1/C(=C\C=C2/CCC[C@]3(C)[C@@H]([C@H](C)CCCC(C)(C)O)CC[C@@H]23)C[C@@H](O)C[C@@H]1O` [1,25DHC, 1,25 dihydroxycholecalciferol] here?
Answer: The value was “inhibits the growth”.

Question: What about the “Growth of solid, human xenografts” value (solid, human xenografts) of the same molecule?
Answer: Its value is “suppress growth”.

Question: With `O=C(O)c1cc(/N=N/c2ccc(S(=O)(=O)Nc3ccccn3)cc2)ccc1O` [sulphasalazine] as the molecule, how does the Relative risk reduction [4] read?
Answer: Its Relative risk reduction is 0.38 (0.2 to 0.7).
